From patent publication US5753631A, “Intercellular adhesion mediators” (Cytel Corporation, priority 1995, dated 1998)

Tests used:
P-Selectin [1] = target: T1, P-Selectin (Homo sapiens, UniProt P16109); test: Inhibition of neutrophil adhesion to thrombin activated platelets by glycolipids in liposomes; type: cell-based; details: for IC50: read-out: AMOUNT REQUIRED FOR 50% INHIBITION
T1 construct: endogenous in cells
T1 sequence (P16109 42-830): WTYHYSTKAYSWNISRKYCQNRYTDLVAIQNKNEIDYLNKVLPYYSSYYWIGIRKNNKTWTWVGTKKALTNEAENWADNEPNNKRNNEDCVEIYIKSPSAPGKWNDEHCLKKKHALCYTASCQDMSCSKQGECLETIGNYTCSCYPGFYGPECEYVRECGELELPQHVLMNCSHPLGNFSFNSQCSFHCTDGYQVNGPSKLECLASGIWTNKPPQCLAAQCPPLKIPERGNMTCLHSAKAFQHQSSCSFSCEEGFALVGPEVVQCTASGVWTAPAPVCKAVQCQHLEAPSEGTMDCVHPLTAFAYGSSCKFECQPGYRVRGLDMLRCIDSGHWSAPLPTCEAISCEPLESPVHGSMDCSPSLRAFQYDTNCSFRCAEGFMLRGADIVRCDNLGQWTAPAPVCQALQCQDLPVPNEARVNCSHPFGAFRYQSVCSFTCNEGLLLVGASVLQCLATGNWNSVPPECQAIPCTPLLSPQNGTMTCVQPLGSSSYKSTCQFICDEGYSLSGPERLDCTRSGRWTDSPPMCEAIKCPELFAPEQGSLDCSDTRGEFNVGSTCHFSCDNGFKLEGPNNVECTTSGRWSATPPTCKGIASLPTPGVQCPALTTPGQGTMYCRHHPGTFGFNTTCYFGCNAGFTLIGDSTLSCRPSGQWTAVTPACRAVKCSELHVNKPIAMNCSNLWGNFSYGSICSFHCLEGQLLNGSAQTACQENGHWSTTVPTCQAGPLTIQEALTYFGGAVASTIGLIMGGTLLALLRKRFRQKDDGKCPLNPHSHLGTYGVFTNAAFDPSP
Description: 3. For the assay, 20 μl of the platelet suspension (2×10^8 /ml) was placed in a microcentrifuge tube. […] Twenty μl of the neutrophil preparation (2×10^6 /ml) was then added and the tubes were allowed to stand for a further 20 min at room temperature.
(§1) 4. Adhesion of activated platelets to the neutrophils was assessed microscopically. One hundred neutrophils were evaluated. They were scored as positive if 2 or more platelets were attached and negative if less than 2 platelets were bound. The percent of cells with 2 or more bound platelets was calculated.
This example describes experiments testing various glycolipid structures on liposomes. In particular, SY2, a sialylated polysaccharide in which the fucose, instead of being attached to the ultimate GlcNAc as in SLe^x, is attached to the penultimate GlcNAc, was tested. Platelets and neutrophils were isolated by the methods described above. Platelets were activated with thrombin and then incubated with dilutions of various glycolipids embedded in liposomes prepared as described above. Neutrophils were added and the effect of the glycolipids on the adhesion of neutrophils to activated platelets was determined.
Structures of the various glycolipids examined are as follows: SDiY2, NeuGcα2,3Galβ1,4(Fucα1,3)GlcNacβ1,3Galβ1,4 (Fucα1,3)GlcNAcβ1,3Galβ1,4Glcβ1,1Cer; SLe^x, NeuGcα2,3Galβ1,4 (Fucα1,3)GlcNAcβ1,3Galβ1,4Glcβ1,1Cer; SY2, NeuGcα2,3Galβ1,4 GlcNAcβ1,3Galβ1,4(Fucα1,3)GlcNAcβ1,3Galβ1,4Glcβ1,1Cer; SH, NeuGcα2,3Galβ1,4GlcNAcβ1,3Galβ1,4GlcNAcβ1,3Galβ1,4Glcβ1,1Cer; SPG, NeuGcα2,3Galβ1,4GlcNAcβ1,3Galβ1,4Glcβ1,1Cer.
All materials were prepared as described above. Platelets and neutrophils were isolated by the methods described. Platelets were activated with thrombin and then incubated with dilutions of various glycolipids contained in liposomes. Neutrophils were added and the effect of the glycolipids on the adhesion of neutrophils to activated platelets was determined.
The results of an experiment in which synthetic SLe^x (NeuAc) and a preparation of SLe^x prepared by enzymatic fucosylation of sialylparagloboside purified from bovine erythrocytes, SLe^x (NeuGc), were directly compared are shown in Table 4.

P-Selectin [2] = target: T1, P-Selectin; test: Oligosaccharide/polysaccharide inhibition of neutrophil adhesion to thrombin activated platelets; type: cell-based
Description: (§2) Briefly, platelets and neutrophils were isolated by the methods described above. Platelets were activated with thrombin and then incubated with dilutions of various oligosaccharides. Neutrophils were added, and the effect of the saccharides on the adhesion of neutrophils to activated platelets was determined.
1. Platelets were isolated as described above and were activated (2×10^8 /ml) by incubation for 20 min at room temperature with thrombin at a final concentration of 0.25 U/ml.
2. Neutrophils were isolated by layering heparinized blood over Mono-Poly Resolving Medium (Ficoll-Hypaque-Flow Laboratories), followed by centrifugation for 25 min at 2000 rpm and then, a further 25 min at 2500 rpm as described above.
3. For the assay, 20 μl of the platelet suspension (2×10^8 /ml) was placed in a microcentrifuge tube. An equal volume of the oligosaccharide preparations at concentrations from 200 μg/ml to 0.3 μg/ml, or of glycolipid-liposome preparations (prepared as described above), at concentrations from 2 μg/ml to 0.25 μg/ml, was added and the tubes were allowed to stand at room temperature for 20 min. Twenty μl of the neutrophil preparation (2×10^6 /ml) was then added and the tubes were allowed to stand for a further 20 min at room temperature.
as §1
as §2, with “added” for “added,”
Platelets were isolated as described above and were activated (2×10^8 /ml) by incubation for 20 min at room temperature with thrombin at a final concentration of 0.25 U/ml.
Neutrophils were isolated by layering heparinized blood over Mono-Poly Resolving Medium (Ficoll-Hypaque, Flow Laboratories), followed by centrifugation for 25 min at […] and then, a further 25 min at 2500 rpm as described above.
For the assay, 20 μl of the platelet suspension (2×10^8 /ml) was placed in an Eppendorf centrifuge tube. An equal volume of the oligosaccharide preparations at concentrations from 500 μg/ml to 2.0 μg/ml was added and the tubes were allowed to stand at room temperature for 20 min. Twenty […] of the neutrophil preparation (2×10^6 /ml) was then added and the tubes were allowed to stand for a further 20 min at room temperature.
as §1, with “Adhesion” for “4. Adhesion”

[3] = Table 3, experiment not specified

Work on CC(=O)N[C@H]1[C@H]([C@H](O)[C@H](O)CO)O[C@@](O[C@H]2[C@@H](O)[C@@H](CO)O[C@@H](O[C@H]3[C@H](O[C@@H]4O[C@@H](C)[C@@H](O)[C@@H](O)[C@@H]4O)[C@@H](NC(C)=O)C(O)O[C@@H]3CO)[C@@H]2O)(C(=O)O)C[C@@H]1O (some centres unmarked) [SLe^x (NeUAc)] yielded an IC50 (P-Selectin [1]; Table 4) of 670 nM.

For CC(=O)N[C@H]1[C@H]([C@H](O)[C@H](O)CO)O[C@@](O[C@H]2[C@@H](O)[C@@H](CO)O[C@@H](O[C@H]3[C@H](O[C@@H]4O[C@@H](C)[C@@H](O)[C@@H](O)[C@@H]4O)[C@@H](NC(C)=O)C(O)O[C@@H]3CO)[C@@H]2O)(C(=O)O)C[C@@H]1O (some centres unmarked) [SLe^x (tetra), NeuAcα2,3Galβ1,4 (Fucα1,3)GlcNAc], the IC50 (P-Selectin [2]; Table 2, mean of three identical experiments, read-out: AMOUNT REQUIRED FOR 50% INHIBITION (converted)) was 54000 nM and the “times more required for 50% inhibition than of the SLe^x-hexasaccharide” value (P-Selectin [2]; tetrasaccharide versus hexasaccharide) was “approximately 20 times”.

Work on CC(=O)N[C@H]1[C@H](O[C@H]2[C@@H](O)[C@@H](CO)O[C@@H](O[C@H]3[C@H](O)[C@@H](O)C(OCC[Si](C)(C)C)O[C@@H]3CO)[C@@H]2O)O[C@H](CO)[C@@H](O[C@@H]2O[C@H](CO)[C@H](O)[C@H](O[C@]3(C(=O)O)C[C@H](O)[C@@H](NC(C)=O)[C@H]([C@H](O)[C@H](O)CO)O3)[C@H]2O)[C@@H]1O[C@@H]1O[C@@H](C)[C@@H](O)[C@@H](O)[C@@H]1O (some centres unmarked) [SLe^x Hexasaccharide] yielded an IC50 (P-Selectin [2]; read-out: AMOUNT REQUIRED FOR 50% INHIBITION, Table 6) of 6420 nM and an IC50 (P-Selectin [2]; read-out: amount for 50% inhibition of P-Selectin mediated binding of neutrophils to thrombin activated platelets, Table 6) of 6420 nM.

With “NeuGcα2,3Galβ1,4 GlcNAcβ1,3Galβ1,4(Fucα1,3)GlcNAcβ1,3Galβ1,4Glcβ1,1Cer [SY2]” the IC50 (P-Selectin [1]; Table 3, Exp 1) was 325 nM, the IC50 (P-Selectin [1]; Table 3, Exp 2) was 345 nM and the “inhibition of P-Selectin mediated adhesion of neutrophils to thrombin activated platelets” value (P-Selectin [1]; in words, relative) was “equally as well as did SLe^x and SDiY2”.

In the case of “NeuGcα2,3Galβ1,4(Fucα1,3)GlcNacβ1,3Galβ1,4 (Fucα1,3)GlcNAcβ1,3Galβ1,4Glcβ1,1Cer [SdiY2]”, the IC50 (P-Selectin [1]; [3]) is reported as 360 nM.

With “NeuGcα2,3Galβ1,4GlcNAcβ1,3Galβ1,4GlcNAcβ1,3Galβ1,4Glcβ1,1Cer [SH, reference compound]” the “AMOUNT REQUIRED FOR 50% INHIBITION” value (P-Selectin [1]; [3]) was “No Inh”.

With “NeuGcα2,3Galβ1,4GlcNAcβ1,3Galβ1,4Glcβ1,1Cer [SPG, reference compound]” the “AMOUNT REQUIRED FOR 50% INHIBITION” value (P-Selectin [1]; [3]) was “No Inh”.
